Test results published in patent publication US10611756B2, “Method of treating pancreatitis using 1,4-benzoxazine derivatives” (GLAXOSMITHKLINE INTELLECTUAL PROPERTY DEVELOPMENT LIMITED, priority 2015, dated 2020).
Values joined by “and” are separate entries in the source; they are usually repeats but may differ in a detail not shown here. Equal values may be shown once.

Target: human KMO (Homo sapiens, UniProt O15229)
Assay: KMO MS Rapidfire assay (RapidFire High-Throughput Mass Spectrometry, Method 1 or Method 2)
Settings: median pIC50, in at least one of the MS Rapidfire assays (Method 1 or 2); isolated human KMO-membranes, 10 μM Kynurenine, 200 μM NADPH; values exemplary only

Sequence of human KMO (O15229 whole entry): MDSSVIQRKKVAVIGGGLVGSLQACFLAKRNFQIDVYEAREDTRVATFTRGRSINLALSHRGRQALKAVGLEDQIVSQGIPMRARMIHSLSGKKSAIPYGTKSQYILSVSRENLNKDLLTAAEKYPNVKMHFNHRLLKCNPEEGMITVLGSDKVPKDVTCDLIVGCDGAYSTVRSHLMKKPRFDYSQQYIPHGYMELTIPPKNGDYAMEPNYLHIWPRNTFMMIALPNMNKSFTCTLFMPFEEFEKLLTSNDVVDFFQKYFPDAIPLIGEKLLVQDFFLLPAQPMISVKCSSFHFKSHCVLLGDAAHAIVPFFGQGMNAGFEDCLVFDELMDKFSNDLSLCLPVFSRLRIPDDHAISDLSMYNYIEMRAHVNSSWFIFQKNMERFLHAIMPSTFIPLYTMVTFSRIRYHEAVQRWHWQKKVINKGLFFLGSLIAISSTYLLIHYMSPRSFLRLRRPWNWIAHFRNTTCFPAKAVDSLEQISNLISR

Compound	IC50
Cc1ncc(C(C)Oc2cc3c(cc2Cl)N(CCC(=O)O)C(=O)CO3)o1 (racemic) [Example 3, 2-amino-2-(hydroxymethyl)propane-1,3-diol; 3-{6-chloro-7-[1-(2-methyl-1,3-oxazol-5-yl)ethoxy]-3-oxo-3,4-dihydro-2H-1,4-benzoxazin-4-yl}propanoic acid]	≤ 31.6 nM
CC(Oc1cc2c(cc1Cl)N(CCC(=O)O)C(=O)CO2)c1ncc[nH]1 (racemic) [Example 6, 2-amino-2-(hydroxymethyl)propane-1,3-diol; 3-{6-chloro-7-[1-(1H-imidazol-2-yl)ethoxy]-3-oxo-3,4-dihydro-2H-1,4-benzoxazin-4-yl}propanoic acid]	≤ 31.6 nM
CC(Oc1cc2c(cc1Cl)N(CCC(=O)O)C(=O)CO2)c1ncco1 (single isomer, unassigned) [Example 4, 2-amino-2-(hydroxymethyl)propane-1,3-diol; 3-{6-chloro-7-[1-(1,3-oxazol-2-yl)ethoxy]-3-oxo-3,4-dihydro-2H-1,4-benzoxazin-4-yl}propanoic acid]	≤ 31.6 nM
CC(Oc1cc2c(cc1Cl)N(CCC(=O)O)C(=O)CO2)c1ncccn1 (single isomer, unassigned) [Example 7, 2-amino-2-(hydroxymethyl)propane-1,3-diol; 3-{6-chloro-3-oxo-7-[1-(pyrimidin-2-yl)ethoxy]-3,4-dihydro-2H-1,4-benzoxazin-4-yl}propanoic acid]	≤ 31.6 nM
O=C(O)CCN1C(=O)COc2cc(OCc3ccccn3)c(Cl)cc21 [Example 9, 3-[6-chloro-3-oxo-7-(pyridin-2-ylmethoxy)-3,4-dihydro-2H-1,4-benzoxazin-4-yl]propanoic acid]	≤ 31.6 nM

Second part, the compound after the results:

IC50	Compound
≤ 31.6 nM	CCC(Oc1cc2c(cc1Cl)N(CCC(=O)O)C(=O)CO2)c1ncccn1 (single isomer, unassigned) [Example 21, 3-{6-chloro-3-oxo-7-[1-(pyrimidin-2-yl)propoxy]-3,4-dihydro-2H-1,4-benzoxazin-4-yl}propanoic acid]
≤ 31.6 nM	CCC(Oc1cc2c(cc1Cl)N(CCC(=O)O)C(=O)CO2)c1ncc(C)cn1 (single isomer, unassigned) [Example 23, 3-{6-chloro-7-[1-(5-methylpyrimidin-2-yl)propoxy]-3-oxo-3,4-dihydro-2H-1,4-benzoxazin-4-yl}propanoic acid]
≤ 31.6 nM	CCC(Oc1cc2c(cc1Cl)N(CCC(=O)O)C(=O)CO2)c1ncc(Cl)cn1 (single isomer, unassigned) [Example 26, 3-{6-chloro-7-[1-(5-chloropyrimidin-2-yl)propoxy]-3-oxo-3,4-dihydro-2H-1,4-benzoxazin-4-yl}propanoic acid]
≤ 31.6 nM	CCC(Oc1cc2c(cc1Cl)N(CCC(=O)O)C(=O)CO2)c1cccnn1 (single isomer, unassigned) [Example 28, 3-{6-chloro-3-oxo-7-[1-(pyridazin-3-yl)propoxy]-3,4-dihydro-2H-1,4-benzoxazin-4-yl}propanoic acid]
≤ 31.6 nM	CCC(Oc1cc2c(cc1Cl)N(CCC(=O)O)C(=O)CO2)c1ccc(C)nn1 (single isomer, unassigned) [Example 29, 3-{6-chloro-7-[1-(6-methylpyridazin-3-yl)propoxy]-3-oxo-3,4-dihydro-2H-1,4-benzoxazin-4-yl}propanoic acid]
≤ 31.6 nM and 1 nM	CC[C@@H](Oc1cc2c(cc1Cl)N(CCC(=O)O)C(=O)CO2)c1ccc(Cl)cn1 [Example 1, (R)-3-(6-Chloro-7-(1-(5-chloropyridin-2-yl)propoxy)-3-oxo-2H-benzo[b][1,4]oxazin-4(3H)-yl)propanoic Acid]
